According to US20110082098A1, “NOVOBIOCIN ANALOGUES AND TREATMENT OF POLYCYSTIC KIDNEY DISEASE” (UNIVERSITY OF KANSAS, priority 2009, published 2011):
Entries after “also recorded” stand apart in the source; their conditions may differ.

Legend:
[1] = system: Pkd1+/− mouse metanephric kidneys; test: Metanephric organ culture; details: embryonic day 15.5 kidneys, 100 μM cAMP, 10 μM KU-174, four days
Description: Pkd1^m1Bei mice were obtained from the Mutant Mouse Regional Resource Center (University of North Carolina, Chapel Hill, N.C.) and were stabilized onto a C57BL/6 background (>10 backcrosses). This mouse has a point mutation (T to G at 9248 bp) that causes an M to R substitution that affects the first transmembrane domain of polycystin-1 as described by Herron, B. J., et al., Efficient generation and mapping of recessive developmental mutations using ENU mutagenesis. Nat Genet, 2002. 30(2): p. 185-9.
Mouse metanephric kidneys were cultured according to methods described in Magenheimer, B. S., et al., Early embryonic renal tubules of wild-type and polycystic kidney disease kidneys respond to cAMP stimulation with cystic fibrosis transmembrane conductance regulator/Na(+),K(+),2Cl(−) Co-transporter-dependent cystic dilation. J Am Soc Nephrol, 2006. 17(12): p. 3424-37. Metanephroi were dissected from Pkd1+/− embryonic mice and placed on transparent Falcon […] cell culture inserts. […] Upon culturing (day 0) and approximately 24 h later (day 1) and each day after (days 2 to 4), kidneys were photographed using a 2× or 4× objective, and the images were acquired and analyzed using the analySIS imaging program (Soft Imaging System, Munster, Germany). […]

[2] = system: ERK 1/2; test: Inhibition of p-ERK in EGF stimulated ADPKD cells by Western blot; type: cell-based, human; details: for decrease in P-Erk (phosphorylation of ERK 1/2): EGF-stimulated ADPKD cells
Protocol: (§1) Human ADPKD cells were plated at a density of 1×10^5 cells per well in medium containing 1% FBS in a 6-well plate. Cells were serum-starved for 24 hours and treated with 25 ng/ml EGF to stimulate cell proliferation, then treated with increasing concentrations of KU-174. As a control for inhibition of the mTOR pathway, ADPKD cells were stimulated by EGF and treated with Rapamycin or LY294002. After 24 or 48 hours, cytoplasmic protein extracts were prepared by lysing cells in ice-cold lysis buffer (10 mM Tris-Cl pH 7.5, 150 mM NaCl, 2 mM EDTA pH 8.0, 1% Triton X-100, 0.5% NP-40, 25 mM glycerol 2-phosphate, 1 mM sodium orthovanadate, 1 mM phenylmethylsulfonyl fluoride, and 0.1% v/v Sigma protease inhibitor cocktail). Nuclei and other Triton-insoluble components were removed by high speed centrifugation. Protein concentration was measured using the Pierce BCA assay kit. 20 μg total protein was boiled with SDS sample buffer and fractionated on 7.5, 10 or 12.5% SDS-PAGE gels. Proteins were transferred to PVDF membranes and non-specific binding blocked with 5% powdered milk in TBS-T (10 mM Tris-Cl pH 7.5, 150 mM NaCl, and 0.1% Tween 20) for 1 h at room temperature. Blocked membranes were incubated with primary antibodies in 5% powdered milk or 5% BSA (for phospho-proteins) in TBS-T overnight at 4° C. Membranes were then washed three times with TBS-T and incubated with alkaline phosphatase-conjugated secondary antibodies in 5% milk in TBS-T for 30 min at room temperature. The membranes were washed three times with TBS-T, and protein bands were visualized using the CDP-star detection reagent (GE healthcare). Intensity was detected and quantitatively analyzed by the Fluor-S MAX multi-imager system (Bio-Rad).

[3] = system: Hsp90 client proteins CFTR, C-Raf, cdk4, ErbB2 and Akt; test: Hsp90 client protein levels in EGF stimulated human ADPKD cells by Western blot; type: cell-based
Protocol: as §1
Proteins from 20 μg total cell lysate were analyzed by Western blotting. Blots were probed with antibodies against Hsp90 and client proteins CFTR, C-Raf, cdk4, ErbB2 and Akt. GAPDH served as the internal control.

[4] = system: human ADPKD cells; test: Microcyst assay in collagen gel matrix; type: cell-based
Protocol: Microcyst assay was performed as described previously by Yamaguchi, T., et al., Calcium restores a normal proliferation phenotype in human polycystic kidney disease epithelial cells. J Am Soc Nephrol, 2006. 17(1): p. 178-87. Primary cultures of human ADPKD cells (4×10^3 cells/well) were dispersed within an ice-cold type I collagen matrix (Vitrogen; Collagen Corp., Palo Alto, Calif.) in wells of a 96-well culture plate. Warming the plate to 37° C. caused polymerization of the collagen, trapping the cells within the gel. A defined medium (DMEM/F12 with ITS, 5×10^−8M hydrocortisone, and 5×10^−5 M triiodothyronine) supplemented with 5 μM forskolin and 5 ng/ml EGF was added for 3 days to initiate cyst growth. Forskolin (FSK) is a small molecule agonist of adenylyl cyclase, the enzyme that makes cAMP. Thus, FSK treatment of cells increases the levels of intracellular cAMP. Fresh media containing EGF and forskolin plus 1 μM or 5 μM KU-174 were added for an additional 5-7 days. […] Gels containing cysts were fixed in 1% formaldehyde and cyst diameters were measured using a morphometric analysis system. Outer diameters of cross-sectional images of spherical cysts with distinct lumens were measured using an inverted microscope with a digital camera and video analysis software. The total surface area (SA) of the cysts within each well was calculated from the individual cyst diameters (cysts≧100 μm). KU-174 inhibits microcyst formation by ADPKD cells in a collagen gel matrix.

[5] = system: mTOR pathway; test: Inhibition of mTOR pathway in EGF stimulated ADPKD cells by Western blot; type: cell-based, human
Protocol: as §1
Human ADPKD cells were plated at a density of 1×10^5 cells per well in medium containing 1% FBS in a 6-well plate. Cells were serum-starved for 24 hours and treated with 25 ng/ml EGF to stimulate cell proliferation, then treated with increasing concentrations of KU-174. As a control for inhibition of the mTOR pathway, ADPKD cells were stimulated by EGF and treated with Rapamycin or LY294002, (an inhibitor of phosphoinositide-3-kinases, PI3Ks). After 24 or 48 hours, cells were lysed and 20 μg total cell lysate analyzed by Western blotting. Blots were probed with antibodies against p-Akt (S473), Akt, p-TSC2 (S939), TSC2, p-mTOR (S2448), mTOR, p-S6K (T412 and T389; phospho-p70 S6 Kinase phosphorylated at T389 or T412) and S6K (p70 S6 kinase; p70S6K1). […] In the 1 μM KU-174 treated cell lysates, p-Akt was decreased by 64%, p-mTOR by 56%, and p-S6K isoforms p85 and p70 by 75% compared with control EGF treated cells and normalized with respect to the corresponding total protein (n=3). There was no change in p-TSC2 levels. […] The figures represent results from independent experiments using primary human ADPKD cells from three different kidneys.

[6] = system: Human ADPKD cyst-lining epithelial cells; test: Cell proliferation assay (Promega Cell Titer 96 MTT); type: cell-based; details: 0.1, 0.5, 1 uM KU-174 for 72 h
Protocol: Primary cultures of human ADPKD cyst-lining epithelial cells were established as described in Yamaguchi, T., et al., Calcium restores a normal proliferation phenotype in human polycystic kidney disease epithelial cells. J Am Soc Nephrol, 2006. 17(1): p. 178-87. Cystic tissue from ADPKD kidneys were minced and digested overnight in DMEM/F12 (1:1) mixture that contained 220 IU/ml type IV collagenase and 100 IU/ml penicillin G and 0.1 mg/ml streptomycin (P/S) (13). Collagenase digestion was stopped by the addition of FBS. […]
The novobiocin analog KU-174 was studied to determine the effect on cAMP and EGF-stimulated proliferation of ADPKD cyst-lining epithelial cells. Cell proliferation was determined by the Promega Cell Titer 96 MTT assay method as described in Yamaguchi, T., et al., Calcium restores a normal proliferation phenotype in human polycystic kidney disease epithelial cells. […] After 72 hours of treatment, cell proliferation was measured by adding the MTT assay reagent and stopping the reaction four hours later. Absorbance was read on a spectrophotometer at 570 nm. Optical densities were measured using a spectrophotometer. In each group, results were expressed as a percentage of the control group (not treated with KU-174).

[7] = system: Pkd1−/− embryonic mice; details: Pkd1−/− embryonic mice with ADPKD; cited from earlier work
[8] = system: murine pkd1-null cells; details: cited from earlier work
[9] = 48 h, 1 μM KU-174, compared to control EGF treated cells

COc1cccc(-c2cc(C(=O)Nc3cc4ccc(O[C@@H]5OC(C)(C)[C@H](OC)[C@@H](O)[C@H]5O)c(OC)c4oc3=O)ccc2OC)c1 [KU-174, N-(7-((2S,3R,4S,5R)-3,4-dihydroxy-5-methoxy-6,6-dimethyltetrahydro-2H-pyran-2-yloxy)-8-methoxy-2-oxo-2H-chromen-3-yl)-3′,6-dimethoxybiphenyl-3-carboxamide]
cyst burden / cyst formation in cAMP-treated metanephric kidneys [1]: reduces the cyst burden; also recorded: reduction in cyst burden; also recorded: reduced cyst formation
decrease in P-Erk (phosphorylation of ERK 1/2) ([2]; 0.5 μM KU-174, 48 h): 70%
total Erk levels ([2]; 0.5 μM and 1 μM KU-174, EGF-stimulated ADPKD cells): remained virtually unchanged
decrease in P-Erk (phosphorylation of ERK 1/2) ([2]; 1 μM KU-174, 48 h): 80%
inhibition of p-ERK ([2]; increasing concentrations of KU-174, EGF-stimulated ADPKD cells): dose-dependent inhibition
total levels of C-Raf ([3]; 24 h, 1 μM KU-174): decreased
total levels of CFTR ([3]; 24 h, 1 μM KU-174): decreased
all the client proteins examined (CFTR, C-Raf, cdk4, ErbB2) ([3]; 48 h, both 0.5 and 1 μM KU-174): effective in decreasing
levels of the Hsp90 client proteins CFTR, ErbB2, c-Raf and Cdk4 ([3]; dose and time-dependent manner, ADPKD cells): decreases
inhibition in cyst growth (total cyst surface area per well) ([4]; 1 μM KU-174, EGF and forskolin, p<0.01): significant inhibition
inhibition of cyst-formation induced by EGF and forskolin ([4]; 1 μM KU-174, n=6): more than 3 fold
cyst formation ([4]; 5 μM KU-174, EGF and forskolin, p<0.01): completely eliminated
microcyst formation by ADPKD cells in a collagen gel matrix ([4]; EGF and forskolin, 1 μM or 5 μM KU-174): dose-dependent inhibition; also recorded: reduces; also recorded: inhibits
p-S6K ([5]; 24 h, 1 μM KU-174): slight decrease
change in phosphoproteins (P-mTOR, P-Akt, P-TSC2, P-S6K) ([5]; 24 h of treatment, 50 nM to 1 μM KU-174, EGF-stimulated ADPKD cells): no change
decrease in P-Akt (S473) [5, 9]: 64%
decrease in P-S6K (isoforms p85 and p70) [5, 9]: 75%
decrease in P-mTOR (S2448) [5, 9]: 56%
decreasing the phosphoproteins ([5]; 48 h, both 0.5 and 1 μM KU-174): effective
P-TSC2 (S939) levels ([5]; EGF-stimulated ADPKD cells, KU-174 up to 1 μM, 48 h): no change
total Akt levels ([5]; at the concentrations examined (up to 1 μM KU-174)): did not appear to decrease
proliferation of EGF-stimulated ADPKD cyst-lining epithelial cells (MTT assay) ([6]; 25 ng/ml EGF): dose-dependent decrease; also recorded: significantly inhibited
proliferation of cAMP-stimulated ADPKD cyst-lining epithelial cells (MTT assay) ([6]; 100 μM cAMP): dose-dependent decrease; also recorded: significantly inhibited

CC(C)[C@]12O[C@H]1[C@@H]1O[C@]13[C@]1(O[C@H]1C[C@H]1C4=C(CC[C@@]13C)C(=O)OC4)[C@@H]2O [Triptolide]
cyst formation [7]: inhibit cyst formation
cell growth [8]: cause cell growth arrest
